Structures are written as SMILES. Counter-ions that a name gives are not always drawn. Like-named read-outs stand apart in the source and are kept apart here.

In assay [1] the target is T1, human OPRM1 (μ, MOR) (Homo sapiens, UniProt P35372).
T1 construct: host or cells: CHO-K1
As to the kind of experiment: cell-based. Particulars: for Emax: OPRM1, read-out: cAMP Emax; for EC50: PathHunter human OPRM1 Arrestin CHO-K1 cell line, read-out: cAMP EC50. The protocol:
G-protein signaling was measured via second messenger cAMP modulation. Detection of cAMP modulation was accomplished in the PathHunter human OPRM1 (μ, MOR) Arrestin CHO-K1 cell line using the Dynamic2 cAMP Kit from Cisbio.

Assay [2] concerns the target T1, human OPRM1 (μ, MOR). As to the kind of experiment: cell-based. Particulars: for Emax: OPRM1, read-out: β-Arrestin Emax; for EC50: PathHunter human OPRM1 Arrestin CHO-K1 cell line, read-out: β-Arrestin EC50. The method, then:
The Discoverx PathHunter® β-Arrestin assay is used to measure β-arrestin-2 activity. The technology is based on Enzyme Fragment Complementation (EFC) with β-galactosidase (β-Gal) as the reporter. […] EA is fused to Q-arrestin-2, and ED is fused to the C-terminus of the GPCR of interest. When a ligand binds and the GPCR is activated, Q-arrestin-2 is recruited to the receptor resulting in an ED/EA complementation, restoring f-Gal activity, which is measured using chemiluminescence. For this assay, the PathHunter human OPRM1 (μ, MOR) Arrestin CHO-K1 cell line was used.

Assay [3] deals with T1, human OPRM1 (μ, MOR). It counts as cell-based. Particulars: for ΔRA of compound: relative activity from EC50 and Emax of β-arrestin vs cAMP, lower RA = more G-protein biased. The protocol: In certain embodiments, the ability of a compound to activate G-protein or β-arrestin is not an on/off switch for a given pathway, but rather a continuous function. To capture this, each compound is measured for activity in cell assays that are linked to β-arrestin recruitment and G-protein signaling. By comparing the activity between these two measures (accounting for both EC50 and maximal response reached, Emax) a relative activity (RA) value is determined.
In the case of MOR it is desirable to have high activation of the G-protein pathway while reducing activation of β-arrestin. In the case of the formula above, this means a lower RA.

T1 sequence (P35372 whole entry): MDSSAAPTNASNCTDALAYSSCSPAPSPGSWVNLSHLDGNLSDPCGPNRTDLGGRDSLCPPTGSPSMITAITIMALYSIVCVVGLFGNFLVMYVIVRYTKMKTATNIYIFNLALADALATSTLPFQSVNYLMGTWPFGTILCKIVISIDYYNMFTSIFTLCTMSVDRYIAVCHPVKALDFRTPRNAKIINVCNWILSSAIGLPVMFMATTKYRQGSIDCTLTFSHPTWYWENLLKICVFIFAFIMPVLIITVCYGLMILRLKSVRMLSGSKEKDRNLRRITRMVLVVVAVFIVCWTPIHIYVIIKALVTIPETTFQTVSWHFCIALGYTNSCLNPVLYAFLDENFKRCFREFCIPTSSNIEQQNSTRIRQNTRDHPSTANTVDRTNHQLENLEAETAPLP

Turning to `CN(C)C1(CNC(=O)N2Cc3ccccc3C2)CCCC1` [Compound 64], in assay [1], the maximal effect (Emax) (as a rule, the greatest response seen or fitted, relative to the assay's reference) turned out to be 88.7% and the EC50 (in general, the concentration that produces a half-maximal response) was found to be 2150 nM. Also, in assay [2], the Emax is less than 1% and the EC50 is greater than 100000 nM. For the same compound, in assay [3], the “Bias Factor (ΔRA of compound relative to ΔRA of DAMGO) × 10” value is listed as less than −14.83 and the ΔRA of compound is less than −2.96.
Turning to `CN(C)C(CNC(=O)N(C)[C@@H]1CCCc2ccccc21)c1ccsc1` (stereo partly shown) [Compound 45], in assay [1], the Emax is 101% and the EC50 amounted to 276 nM. Further, in assay [2], the Emax was determined as 8.1% and the EC50 was greater than 100000 nM. Besides, in assay [3], the “Bias Factor (ΔRA of compound relative to ΔRA of DAMGO) × 10” value is less than −14.83 and the ΔRA of compound was less than −2.96.
On to `CN(C)C1(CNC(=O)N2Cc3ccc(F)cc3C2)CCCCC1` [Compound 46], for which, in assay [1], the Emax was determined as 109% and the EC50 turned out to be 522 nM. In assay [2], the Emax is 13.6% and the EC50 is 10100 nM. In assay [3], the “Bias Factor (ΔRA of compound relative to ΔRA of DAMGO) × 10” value is on record as −7.08 and the ΔRA of compound is listed as −2.19.
With `Cc1ccc2c(c1)CN(C(=O)NCC(c1ccsc1)N(C)C)C2` (stereo not shown) [Compound 12a, N-(2-(Dimethylamino)-2-(thiophen-3-yl)ethyl)-5-methylisoindoline-2-carboxamide hydrochloride], in assay [1], the Emax came to 6.33% and the EC50 was greater than 100000 nM. In assay [2], the Emax was 2.16% and the EC50 is greater than 100000 nM.
Turning to `CNC(CNC(=O)N1Cc2ccccc2C1)c1ccsc1` (stereo not shown) [Compound 78], in assay [1], the “cAMP Emax” value was determined as 104.0% and the EC50 was 362 nM. Besides, in assay [2], the “β-Arrestin Emax” value came to 12.8% and the EC50 is greater than 100000 nM. In assay [3], the “Bias Factor (ΔRA of compound relative to ΔRA of DAMGO) × 10” value is reported as less than −14.83 and the ΔRA of compound is reported as less than −2.96.
With `CN(C)C(CNC(=O)N1CC[C@H](c2ccccc2)C1)c1ccsc1` (stereo partly shown) [Compound 40], in assay [1], the Emax came to 53.5% and the EC50 is 152 nM. In addition, in assay [2], the Emax is 3.3% and the EC50 is greater than 100000 nM. For the same compound, in assay [3], the “Bias Factor (ΔRA of compound relative to ΔRA of DAMGO) × 10” value is given as less than −14.83 and the ΔRA of compound is recorded as less than −2.96.
As to `CN(C)C(CNC(=O)N1Cc2ccc(O)cc2C1)c1ccsc1` (stereo not shown) [Compound 22, N-(2-(Dimethylamino)-2-(thiophen-3-yl)ethyl)-5-hydroxyisoindoline-2-carboxamide hydrobromide], in assay [1], the Emax stood at 16.3% and the EC50 was found to be 322 nM. Moreover, in assay [2], the Emax is less than 1% and the EC50 is greater than 100000 nM. In assay [3], the “Bias Factor (ΔRA of compound relative to ΔRA of DAMGO) × 10” value is recorded as less than −14.83 and the ΔRA of compound is on record as less than −2.96.
In the case of `CNC(CNC(=O)N1Cc2cccc(F)c2C1)c1ccsc1` (stereo not shown) [Compound 81], in assay [1], the “cAMP Emax” value came to 91.6% and the EC50 was 14 nM. Besides, in assay [2], the “β-Arrestin Emax” value was 8.2% and the EC50 is greater than 100000 nM. In assay [3], the “Bias Factor (ΔRA of compound relative to ΔRA of DAMGO) × 10” value is given as less than −14.83 and the ΔRA of compound was less than −2.96.
On to `CN(C)C(CNC(=O)N1Cc2ccccc2C1)c1ccccc1` (single isomer, unassigned) [Compound 57], for which, in assay [1], the Emax was determined as 89.4% and the EC50 is 72 nM. For the same compound, in assay [2], the “β-Arrestin Emax” value is less than 1% and the EC50 was greater than 100000 nM. Further, in assay [3], the “Bias Factor (ΔRA of compound relative to ΔRA of DAMGO) × 10” value is recorded as less than −14.83 and the ΔRA of compound is on record as less than −2.96.
Regarding `CN(C)C(CNC(=O)N1Cc2ccccc2C1)c1ccc(F)cc1Cl` (stereo not shown) [Compound 14a, N-(2-(2-Chloro-4-fluorophenyl)-2-(dimethylamino)ethyl)isoindoline-2-carboxamide hydrochloride], in assay [1], the Emax is 102% and the EC50 came to 56 nM. Also, in assay [2], the Emax was 61.2% and the EC50 came to 3960 nM. In assay [3], the “Bias Factor (ΔRA of compound relative to ΔRA of DAMGO) × 10” value was −5.91 and the ΔRA of compound is given as −2.07.
In the case of `CNC(CNC(=O)N1Cc2ccccc2C1)c1ccsc1` (stereo not shown) [Compound 79], in assay [1], the “cAMP Emax” value came out at 64.2% and the EC50 is 87 nM. In assay [2], the “β-Arrestin Emax” value is reported as 1.7% and the EC50 was greater than 100000 nM. Further, in assay [3], the “Bias Factor (ΔRA of compound relative to ΔRA of DAMGO) × 10” value was less than −14.83 and the ΔRA of compound was less than −2.96.
For the compound `COc1ccc2c(c1)CN(C(=O)NCC(c1ccsc1)N(C)C)C2` (stereo not shown) [Compound 5a, N-(2-(Dimethylamino)-2-(thiophen-3-yl)ethyl)-5-methoxyisoindoline-2-carboxamide hydrochloride], in assay [1], the Emax was determined as 5% and the EC50 was greater than 100000 nM. In assay [2], the Emax was less than 1% and the EC50 was greater than 100000 nM.
Turning to `CN(C)C(CNC(=O)N1Cc2cc(F)c(F)cc2C1)c1ccsc1` (stereo not shown) [Compound 6a, N-(2-(dimethylamino)-2-(thiophen-3-yl)ethyl)-5,6-difluoroisoindoline-2-carboxamide hydrochloride], in assay [1], the Emax was determined as 21.9% and the EC50 was 9 nM. In addition, in assay [2], the maximal effect (Emax) was less than 1% and the EC50 was greater than 100000 nM. Also, in assay [3], the “Bias Factor (ΔRA of compound relative to ΔRA of DAMGO) × 10” value was less than −14.83 and the ΔRA of compound is on record as less than −2.96.
`CN(C)[C@@H](CCNC(=O)N1CC[C@@H](c2ccccc2)C1)c1ccsc1` [Compound 77]: in assay [1], the Emax came out at 33.2% and the EC50 was determined as 1100 nM. Also, in assay [2], the Emax was less than 1% and the EC50 was greater than 100000 nM. Besides, in assay [3], the “Bias Factor (ΔRA of compound relative to ΔRA of DAMGO) × 10” value is reported as less than −14.83 and the ΔRA of compound is less than −2.96.
On to `CN(C)C(CNC(=O)N1CC[C@@H](c2ccccc2)C1)c1ccsc1` (stereo partly shown) [Compound 41], for which, in assay [1], the Emax was found to be 9.6% and the EC50 is greater than 100000 nM. In addition, in assay [2], the Emax is less than 1% and the EC50 is greater than 100000 nM.
Take `CN(C)C(CNC(=O)N1CCCc2cc(F)ccc21)c1ccccc1` (stereo not shown) [Compound 70a]: in assay [1], the Emax stood at 90.3% and the EC50 came to 512 nM. In addition, in assay [2], the Emax was found to be 5.3% and the EC50 came out at 11000 nM. In assay [3], the “Bias Factor (ΔRA of compound relative to ΔRA of DAMGO) × 10” value is −10.82 and the ΔRA of compound is recorded as −2.56.
`CN(C)C(CNC(=O)N1Cc2ccc(Cl)cc2C1)c1ccsc1` (stereo not shown) [Compound 4a, 5-Chloro-N-(2-(dimethylamino)-2-(thiophen-3-yl)ethyl)isoindoline-2-carboxamide hydrochloride]: in assay [1], the Emax stood at 20.7% and the EC50 was greater than 100000 nM. Further, in assay [2], the Emax is less than 1% and the EC50 is greater than 100000 nM.
`CN(C)C(CNC(=O)N1Cc2ccccc2C1)c1ccsc1` (stereo not shown) [Compound 1a, N-(2-(Dimethylamino)-2-(thiophen-3-yl)ethyl)isoindoline-2-carboxamide hydrochloride]: in assay [1], the Emax came to 69.2% and the EC50 was determined as 20 nM. In addition, in assay [2], the Emax was found to be 5.67% and the EC50 worked out at 186 nM. In assay [3], the “Bias Factor (ΔRA of compound relative to ΔRA of DAMGO) × 10” value was −5.75 and the ΔRA of compound was −2.06.
Consider `CN(C)C(CNC(=O)N1Cc2ccc(O)cc2C1)c1ccc(O)cc1` (stereo not shown) [Compound 24, N-(2-(dimethylamino)-2-(4-hydroxyphenyl)ethyl)-5-hydroxyisoindoline-2-carboxamide hydrobromide], for which, in assay [1], the Emax was less than 10% and the EC50 is greater than 100000 nM. Further, in assay [2], the Emax was less than 1% and the EC50 was greater than 100000 nM. For the same compound, in assay [3], the “Bias Factor (ΔRA of compound relative to ΔRA of DAMGO) × 10” value is less than −14.83 and the ΔRA of compound is on record as less than −2.96.
As for `C[C@@H](NC(=O)[C@@H](N)Cc1ccc(O)cc1)C(=O)NCC(=O)N(C)[C@@H](Cc1ccccc1)C(=O)NCCO` [DAMGO, H-Tyr-D-Ala-Gly-NMe-Phe-Gly-OH, reference compound], the values for the Emax in assay [1] and in assay [2] were 108% and 98.3%, respectively.
For the compound `CN(C)C(CNC(=O)N[C@H]1CCc2ccc(O)cc2C1)c1ccsc1` (stereo partly shown) [Compound 60], in assay [1], the Emax stood at 27.5% and the EC50 turned out to be 676 nM. In assay [2], the Emax was less than 1% and the EC50 is greater than 100000 nM. Further, in assay [3], the “Bias Factor (ΔRA of compound relative to ΔRA of DAMGO) × 10” value is given as less than −14.83 and the ΔRA of compound is recorded as less than −2.96.
With `CN(C)C(CNC(=O)NC1CCc2ccccc2C1)c1ccsc1` (stereo not shown) [Compound 10a, 1-(2-(Dimethylamino)-2-(thiophen-3-yl)ethyl)-3-(1,2,3,4-tetrahydronaphthalen-2-yl)urea hydrochloride], in assay [1], the Emax amounted to 85.5% and the EC50 worked out at 4 nM. In assay [2], the Emax came out at 3.33% and the EC50 was greater than 100000 nM. Besides, in assay [3], the “Bias Factor (ΔRA of compound relative to ΔRA of DAMGO) × 10” value is listed as less than −14.83 and the ΔRA of compound is listed as less than −2.96.
Regarding `CN(C)C(CNC(=O)N[C@@H]1CCc2ccccc2C1)c1ccsc1` (stereo partly shown) [Compound 48], in assay [3], the “Bias Factor (ΔRA of compound relative to ΔRA of DAMGO) × 10” value is reported as less than −14.83 and the ΔRA of compound is listed as less than −2.96.
For `CN(C)C(CNC(=O)N[C@@H]1CCc2ccccc2C1)c1ccsc1` (stereo partly shown) [Compound 47], in that order: less than −14.83 and less than −2.96.

The values above are taken from US20220315567A1 (priority 2016, published 2022).
